Laboratory results published in patent publication US9707212B2, “S-nitrosoglutathione reductase inhibitors” (Nivalis Therapeutics, Inc., priority 2010, dated 2017).

Key:
[1] = Mouse pharmacokinetic (PK) study; assay type: in vivo, male BALB/c mice; conditions: mice; for bioavailability: male, BALB/c, mouse, plasma, PO 10 mg/kg, IV 2 mg/kg
Text: The mouse was used to determine the pharmacokinetics of compounds of the invention. This species is widely used to assess the bioavailability of compounds by administering both oral (PO) and intravenous (IV) test articles. Efficacy of the compounds of the invention was compared by assessing plasma exposure in male BALB/c mice either via IV or PO administration at the times of peak activity.
Compounds of the invention were reconstituted in a phosphate buffered saline (PBS)/10% Solutol (HS 15) clear solution resulting in a concentration of 0.2 mg/ml and administered to mice (2 mg/kg) as a single IV dose. Animals were dosed via the lateral tail vein. Blood samples were collected at designated time points (0.083, 0.25, 0.5, 1, 2, 4, 8, 16, 24 hours) by cardiac puncture under isoflurane anesthesia (up to 1 ml blood per animal). The blood was collected into tubes containing Li-Heparin. The blood samples were kept on ice until centrifugation within approximately 30 minutes of collection. The plasma was transferred into labeled polypropylene tubes and frozen at −70° C. until analyzed by LC/MS/MS.
The compounds of the invention were reconstituted in 40% Propylene Glycol/40% Propylene Carbonate/20% of a 5% Sucrose clear solution resulting in a concentration of 2 mg/ml and administered to mice (10 mg/kg) as a single oral dose via gavage. Blood samples were collected at 0.25, 0.5, 1, 2, 4, 8, 12, 16, 20 and 24 hours post dose by cardiac puncture under isoflurane anesthesia. The blood was collected in tubes containing Li-Heparin. The blood samples were kept on ice until centrifugation within approximately 30 minutes of collection. The plasma was transferred into labeled polypropylene tubes and frozen at −70° C. until analyzed by LC/MS/MS.
Plasma samples at each time point were analyzed using a LC-MS/MS with a lower limit of quantification (LLOQ) of 1 ng/ml. Plasma was analyzed to determine the amount of the compound of the invention in each sample and regression curves generated for each compounds of the invention in the relevant matrixes.
WinNonlin analysis was used for calculating PK parameters for both the IV and PO administrations: • PK parameters for IV portion—AUClast; AUCINF; T1/2; Cl; Vss; Cmax; MRT • PK parameters for PO portion—AUClast; AUCINF; T1/2; Cmax; Cl, MRT.
In addition to the above PK parameters, bioavailability (% F) was calculated.

[2] = test system: acute DSS-induced IBD; assay: Acute prophylactic model of DSS-induced IBD in mice; assay type: in vivo, male C57Bl/6 mice; conditions: for effect on colon injury: mouse model of acute DSS-induced IBD; for decrease of percent of mice with severe colon injury scores via endoscopy, of vehicle control / decrease of percent of mice with severe colon injury scores via histopathology, of vehicle control: prophylactic regimen
Text: Acute and chronic models of dextran sodium sulfate (DSS)-induced IBD in mice were used to explore efficacy of GSNORi against this disease. Acute and chronic DSS-induced IBD are widely used and well characterized models that induce pathological changes in the colon similar to those observed in the human disease. In these models and in human disease, epithelial cells within the crypts of the colon are disrupted, leading to dysfunction of the epithelial barrier and the ensuing tissue inflammation, edema, and ulceration. GSNORi therapy may benefit IBD by restoring s-nitrosoglutathione (GSNO) levels, and thus prevent or reverse the epithelial barrier dysfunction. Experimental IBD was induced by administration of DSS in the drinking water of male C57Bl/6 mice (N=8 to 10 mice per group) for 6 consecutive days. GSNORi was dosed orally at doses of 0.1 to 10 mg/kg/day for 10 days starting two days prior to and continuing two days post DSS exposure. Two days post DSS exposure, the effect of GSNORi was assessed in a blinded fashion via endoscopy and histopathology using a five point scale ranging from a score=0 (normal tissue) through a score=4 (ulcerative tissue damage and marked pathological changes). Levels of circulating cytokines involved in inflammatory pathways were also assessed. The effect of GSNORi was compared to vehicle treated controls. The corticosteroid, prednisolone, was used as the positive control in this study and was administered daily at 3 mg/kg/day via oral dosing. Naïve mice (N=5) were also assessed as a normal tissue control.

[3] = test system: cigarette smoke-induced COPD; assay: Acute (4 day) cigarette smoke exposure COPD model; assay type: in vivo, female C57Bl/6 mice; conditions: oral 10 mg/kg/day for 7 days, acute 4 day smoke model
Description: The efficacy of GSNOR inhibitors was assessed in a mouse model of chronic obstructive pulmonary disease (COPD) induced by short duration (4 days or 11 days) of exposure to cigarette smoke. Infiltration of inflammatory cells into the bronchoalveolar lavage fluid (BALF) and BALF levels of chemokines involved in inflammation and tissue turnover/repair were measured to assess the influences of GSNOR inhibitors on some of the early events associated with the initiation and progression of COPD.
Efficacy of GSNOR inhibitors against COPD was explored using acute (4 day) and subchronic (11 day) models of cigarette smoke-induced COPD in mice. […] In animal models, changes in lung pathology are only evident after extended (several months) duration of exposure to cigarette smoke, thus making chronic models prohibitive as effective screening tools. More recently, models exploring inflammatory responses after short duration (2 weeks or less) of smoke exposure in mice have been utilized as tools for screening efficacy and mechanisms of action of novel therapeutics against COPD. The key roles of inflammation in the initiation and progression of COPD, make these short duration models relevant for initial tests of efficacy of novel therapeutics.
Female C57Bl/6 mice (N=8 per group) were exposed to cigarette smoke using a whole body exposure chamber. Mice were exposed daily for 4 consecutive days to 4 cycles of smoke from 6 sequential cigarettes (Kentucky 3R4F without filter) with a 30 minute smoke free interval between cycles. GSNOR inhibitors were administered daily via oral dosing at 10 mg/kg/day for 7 days starting 2 days prior to smoke exposure and continuing 1 day post-exposure. The effects of GSNOR inhibitors were assessed by quantitating the numbers of total cells, leukocytes, and leukocytes differentials in the BALF via light microscopy and the levels of BALF chemokines via ELISA at approximately 24 h after the last smoke exposure. The effect of GSNOR inhibitors were compared to vehicle treated controls. The PDE4 inhibitor, roflumilast, was used as the positive control for the study. A group of naïve mice (N=8) was exposed to air and used as a negative control for the study.

[4] = test system: cigarette smoke-induced COPD; assay: Subchronic (11 day) cigarette smoke exposure COPD model; assay type: in vivo, female C57Bl/6 mice; conditions: oral 1 mg/kg/day for 11 days, subchronic 11 day model
Description: The efficacy of GSNOR inhibitors was assessed in a mouse model of chronic obstructive pulmonary disease (COPD) induced by short duration (4 days or 11 days) of exposure to cigarette smoke. Infiltration of inflammatory cells into the bronchoalveolar lavage fluid (BALF) and BALF levels of chemokines involved in inflammation and tissue turnover/repair were measured to assess the influences of GSNOR inhibitors on some of the early events associated with the initiation and progression of COPD. Efficacy of GSNOR inhibitors against COPD was explored using acute (4 day) and subchronic (11 day) models of cigarette smoke-induced COPD in mice. […] In animal models, changes in lung pathology are only evident after extended (several months) duration of exposure to cigarette smoke, thus making chronic models prohibitive as effective screening tools. […] The effects of GSNOR inhibitors were assessed by quantitating the number of total cells, and leukocytes differentials in the BALF via light microscopy at 24 h after the last exposure. The effect of GSNOR inhibitors were compared to vehicle treated controls and expressed as percent inhibition of the cigarette smoke induced increases in BALF cell numbers. […]

[5] = oral 10 mg/kg/day for 10 consecutive days

| Structure (SMILES) | bioavailability [1] [%] | effect on colon injury [2] | decrease of percent of mice with severe colon injury scores via endoscopy, of vehicle control [2, 5] [%] | decrease of percent of mice with severe colon injury scores via histopathology, of vehicle control [2, 5] [%] | other results |
| --- | --- | --- | --- | --- | --- |
| O=c1c2ccc(O)cc2oc(C(F)(F)F)c1[C@H]1CC[C@H](C(=O)O)CC1 [Example 3, (trans)-4-(7-hydroxy-4-oxo-2-(trifluoromethyl)-4H-chromen-3-yl)cyclohexanecarboxylic acid] | 4 to 41 | attenuated colon injury |  |  | decrease of percent of mice with severe colon injury scores via endoscopy, of vehicle control ([2]; oral 0.1 mg/kg/day for 10 consecutive days): 38%; decrease of percent of mice with severe colon injury scores via endoscopy, of vehicle control ([2]; oral 1 mg/kg/day for 10 consecutive days): 25%; effect on BALF chemokines [3]: restored BALF chemokines towards levels observed in naïve mice; effects on BALF cells compared with roflumilast [3]: comparable to or greater than those observed for roflumilast; inhibition of smoke-induced increase in eosinophils in BALF [3]: 100%; inhibition of smoke-induced increase in leukocytes in BALF [3]: 100%; inhibition of smoke-induced increase in macrophages in BALF [3]: 100%; inhibition of smoke-induced increase in neutrophils in BALF [3]: 100%; inhibition of smoke-induced increase in total cells in BALF [3]: 100% |
| O=c1[nH]c(-c2ccc(-c3c(C(F)(F)F)oc4cc(O)ccc4c3=O)cc2)no1 [Example 9, 3-(4-(7-hydroxy-4-oxo-2-(trifluoromethyl)-4H-chromen-3-yl)phenyl)-1,2,4-oxadiazol-5(4H)-one] | 4 to 41 |  |  |  |  |
| O=C(O)c1ccc(-c2c(C(F)(F)F)oc3cc(O)ccc3c2=O)c(F)c1 [Example 16, 3-fluoro-4-(7-hydroxy-4-oxo-2-(trifluoromethyl)-4H-chromen-3-yl)benzoic acid] | ~44 | attenuated colon injury | 58 | 15 | effects on BAL cells compared with roflumilast [4]: comparable to those of roflumilast |
| O=C(O)c1ccc(-c2c(C(F)(F)F)oc3cc(O)ccc3c2=O)cc1 [comparator compound, 4-(7-hydroxy-4-oxo-2-(trifluoromethyl)-4H-chromen-3-yl)benzoic acid, reference compound] | ~17 |  |  |  | clearance (Cl) relative to Example 16 [1]: about three times faster than Example 16 |

Further lines, with some results ahead:

| bioavailability [1] [%] | Structure (SMILES) | effect on colon injury [2] | decrease of percent of mice with severe colon injury scores via endoscopy, of vehicle control [2, 5] [%] | decrease of percent of mice with severe colon injury scores via histopathology, of vehicle control [2, 5] [%] | other results |
| --- | --- | --- | --- | --- | --- |
| 4 to 41 | O=c1c(-c2ccc(-c3nnn[nH]3)cc2)c(C(F)(F)F)oc2cc(O)ccc12 [Example 1, 3-(4-(1H-tetrazol-5-yl)phenyl)-7-hydroxy-2-(trifluoromethyl)-4H-chromen-4-one] | attenuated colon injury | 75 | 17 |  |
| 4 to 41 | Cc1sc2cc(O)ccc2c(=O)c1-c1ccc(-c2nnn[nH]2)cc1 [Example 12, 3-(4-(1H-tetrazol-5-yl)phenyl)-7-hydroxy-2-methyl-4H-thiochromen-4-one] |  |  |  |  |
